Measurements: the NIST ThermoML archive (doi:10.1016/j.fluid.2005.01.012)
Numbers after ± are expanded uncertainties.

Assay: refractive index (Na D-line) (dimensionless)
Conditions: 293.1 K; 101.33 kPa; Liquid; Standard Abbe refractometry

SMILES	refractive index
CN1CCCC1=O [N-methylpyrrolidone]	1.4696 ± 0.0008
CCCCCCCCCCCCCC [tetradecane]	1.4291 ± 0.0008
CCCc1ccccc1 [propylbenzene]	1.4915 ± 0.0008
CCCCCCCCCCCCCCCCC [heptadecane]	1.4362 ± 0.0008
CCCCCCCCCCCC [dodecane]	1.422 ± 0.0008
